Results published in BindingDB's records for doi:10.1016/s0960-894x(03)00491-8 (Central Drug Research Institute, 2003).

Target: Beta-3 adrenergic receptor (Homo sapiens, UniProt P13945)
Assay: In vitro effective concentration against beta-3 adrenergic receptor.

Beta-3 adrenergic receptor, sequence (P13945 whole entry): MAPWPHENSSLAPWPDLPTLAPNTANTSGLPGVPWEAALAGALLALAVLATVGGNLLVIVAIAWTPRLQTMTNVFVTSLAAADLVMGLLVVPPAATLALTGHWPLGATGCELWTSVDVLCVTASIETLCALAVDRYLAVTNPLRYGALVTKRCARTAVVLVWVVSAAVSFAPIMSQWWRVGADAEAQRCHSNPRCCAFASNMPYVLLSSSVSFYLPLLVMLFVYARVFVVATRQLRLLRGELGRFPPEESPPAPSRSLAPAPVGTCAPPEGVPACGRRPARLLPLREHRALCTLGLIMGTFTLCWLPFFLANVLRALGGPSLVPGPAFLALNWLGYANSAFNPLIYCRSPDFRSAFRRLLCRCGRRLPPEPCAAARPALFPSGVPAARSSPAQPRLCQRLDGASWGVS

SMILES | EC50
CCCCCCn1c(O)cn(-c2ccc(S(=O)(=O)Nc3ccc(CCNC[C@H](O)c4cccnc4)cc3)cc2)c1=O [4-(3-Hexyl-2,4-dioxo-imidazolidin-1-yl)-N-{4-[2-(2-hydroxy-2-pyridin-3-yl-ethylamino)-ethyl]-phenyl}-benzenesulfonamide] | 77.6 nM
CCCCCCCCn1cc(O)n(-c2ccc(S(=O)(=O)Nc3ccc(CCNC[C@H](O)c4cccnc4)cc3)cc2)c1=O [N-{4-[2-((R)-2-Hydroxy-2-pyridin-3-yl-ethylamino)-ethyl]-phenyl}-4-(3-octyl-2,5-dioxo-imidazolidin-1-yl)-benzenesulfonamide] | 63.1 nM
CCCCCCn1cc(O)n(-c2ccc(S(=O)(=O)Nc3ccc(CCNC[C@H](O)c4cccnc4)cc3)cc2)c1=O [4-(3-Hexyl-2,5-dioxo-imidazolidin-1-yl)-N-{4-[2-(2-hydroxy-2-pyridin-3-yl-ethylamino)-ethyl]-phenyl}-benzenesulfonamide] | 3.63 nM
